Test results as given in US20080312211A1, “Antibacterial Pyrrolopyridines, Pyrrolopyrimidines and Pyrroloazepines-154” (ASTRAZENECA AB, priority 2005, published 2008).

What was measured:
Streptococcus pneumoniae = assay: Bacterial susceptibility testing in liquid media (MIC); format: cell-based; design: unit not given here; details: lowest concentration reducing growth by 80% or more; 37 degrees C., 24 hrs
Protocol: Compounds were tested for antimicrobial activity by susceptibility testing in liquid media. Compounds were dissolved in dimethylsulfoxide and tested in 10 doubling dilutions in the susceptibility assays. The organisms used in the assay were grown overnight on suitable agar media and then suspended in a liquid medium appropriate for the growth of the organism. The suspension was a 0.5 McFarland and a further 1 in 10 dilution was made into the same liquid medium to prepare the final organism suspension in 100 μL. Plates were incubated under appropriate conditions at 37 degrees C. for 24 hrs prior to reading. The Minimum Inhibitory Concentration was determined as the lowest drug concentration able to reduce growth by 80% or more.

Row | MIC (Streptococcus pneumoniae) | melting point | Structure (SMILES)
1 | 50 | – | COC1CN(c2ncc(C(=O)O)s2)CCC1n1ccc2c(Cl)c(C)[nH]c2c1=O (stereo not drawn) [Example 22, 2-[3,4-cis-4-(3-Chloro-2-methyl-7-oxo-1,7-dihydro-6H-pyrrolo[2,3-c]pyridin-6-yl)-3-methoxypiperidin-1-yl]-1,3-thiazole-5-carboxylic acid]
2 | – | > 345 °C (dec.) | COC(=O)c1cnc(N2CCC(n3c(=O)[nH]c4c(C#N)c(C)[nH]c4c3=O)CC2)s1 [Example 1, Methyl 2-[4-(7-cyano-6-methyl-2,4-dioxo-1,2,4,5-tetrahydro-3H-pyrrolo[3,2-d]pyrimidin-3-yl)piperidin-1-yl]-1,3-thiazole-5-carboxylate]
